Results published in BindingDB's records for doi:10.3109/14756366.2013.823957 (National Tsing Hua University, 2014).

Biological target: Cathepsin S (Homo sapiens, UniProt P25774)
Assay: Cathepsin Activity Assay
Conditions: pH 6.5; 25 °C
Description: A microplate-based screening procedure was used to study the effect of inhibition of re-Cat S, re-Cat L and re-Cat K on several compounds. The assays were performed in quadruplicates at 25 °C in a buffer containing 50 mM MES, pH 6.5, 2.5 mM EDTA and 1 mM DTT for re-Cat S, or 100 mM NaOAc, pH 5.5, 1 mM DTT and 2 mM EDTA for re-Cat L, or 50 mM MES, pH 5.5, 5 mM DTT and 2.5 mM EDTA for re-Cat K. Each of tested compounds at 100 nM was incubated with 50 nM re-Cat S, 31.25 pM re-Cat L or 10 nM re-Cat K at 37 °C for 10 min before initiating the reaction with the addition of 5 μM relevant substrate (Z-Phe-Arg-AMC for Cat L and Cat K, and Z-Val-Val-Arg-AMC for Cat S), respectively [Ward et al., J. Med. Chem., 45:5471-82]. Reactions in microplates were kept at 37 °C for another 30 min and then to collect the fluorescent signals from each well in microplates. E64 and 1% DMSO were applied as positive and solvent control, respectively. Fluorimetric assays were performed at 37 °C on a Perkin Elmer LS55 fluorescence spectrophotometer (Waltham, MA) with excitation at 370 nm and emission at 460 nm wavelengths. The inhibitory ability of a tested compound was determined by decreased fluorescence compared to DMSO control.

Chain of Cathepsin S (P25774 whole entry): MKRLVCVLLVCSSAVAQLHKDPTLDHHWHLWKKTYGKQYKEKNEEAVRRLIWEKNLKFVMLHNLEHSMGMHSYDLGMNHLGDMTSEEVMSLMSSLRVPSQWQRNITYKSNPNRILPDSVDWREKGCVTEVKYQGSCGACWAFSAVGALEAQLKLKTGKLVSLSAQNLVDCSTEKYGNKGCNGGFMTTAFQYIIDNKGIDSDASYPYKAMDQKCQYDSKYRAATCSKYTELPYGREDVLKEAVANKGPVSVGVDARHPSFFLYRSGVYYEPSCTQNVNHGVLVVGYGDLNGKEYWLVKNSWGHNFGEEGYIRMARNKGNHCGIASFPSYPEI

| SMILES | IC50 [nM] |
| --- | --- |
| CCOC(=O)CNC(=O)C(=O)C(COCc1ccccc1)NC(=O)C(CC1CCCCC1)NC(=O)c1cc(OC)ccc1[N+](=O)[O-] (stereo not drawn) [Cathepsin S inhibitor alpha-ketoamide, 6e] | 3.1 |
| CCOC(=O)CNC(=O)C(=O)C(COCc1ccccc1)NC(=O)C(CC1CCCCC1)NC(=O)c1ccc(C(=O)OC)c(NC(=O)OC(C)(C)C)c1 (stereo not drawn) [Cathepsin S inhibitor alpha-ketoamide, 6n] | 49.2 |
| CCOC(=O)CNC(=O)C(=O)C(COCc1ccccc1)NC(=O)C(CC1CCCCC1)NC(=O)c1cccc2c1C(=O)c1ccccc1-2 (stereo not drawn) [Cathepsin S inhibitor alpha-ketoamide, 6r] | 8.8 |

Continued, values first:

| IC50 [nM] | SMILES |
| --- | --- |
| 4.4 | CCOC(=O)CNC(=O)C(=O)C(COCc1ccccc1)NC(=O)C(CC1CCCCC1)NC(=O)N1CCOCC1 (stereo not drawn) [Cathepsin S inhibitor alpha-ketoamide, 6a] |
| 2 | CCOC(=O)CNC(=O)C(=O)C(COCc1ccccc1)NC(=O)C(CC1CCCCC1)NC(=O)c1cccc([N+](=O)[O-])c1 (stereo not drawn) [Cathepsin S inhibitor alpha-ketoamide, 6b] |
| 5.8 | CCOC(=O)CNC(=O)C(=O)C(COCc1ccccc1)NC(=O)C(CC1CCCCC1)NC(=O)c1ccc(C(=O)OC)c(N)c1 (stereo not drawn) [Cathepsin S inhibitor alpha-ketoamide, 6p] |
| 3.1 | CC(C)(C)CC(C)(C)NC(=O)C(=O)C(COCc1ccccc1)NC(=O)C(CC1CCCCC1)NC(=O)N1CCOCC1 (stereo not drawn) [Cathepsin S inhibitor alpha-ketoamide, 6w] |
